Structures can show the parent of a compound that is named as a salt.
Assays:
Gelling behavior = format: physicochemical; conditions: gelling can compromise tablet disintegration and dissolution rate
Excerpt: 2-fluoro-N-methyl-4-[7-(quinolin-6-ylmethyl)imidazo[1,2-b][1,2,4]triazin-2-yl]benzamide dihydrochloride has a gelling behavior, mostly prominent at pHs above 3.5, which can compromise tablet disintegration and dissolution rate. Drug load and disintegrant type/levels can influence this behavior and need to be carefully selected to ensure adequate in vitro performance.

Bulk density = format: physicochemical
Excerpt: 2-fluoro-N-methyl-4-[7-(quinolin-6-ylmethyl)imidazo[1,2-b][1,2,4]triazin-2-yl]benzamide dihydrochloride has a very low bulk density (0.085 g/mL), which justifies the need of a densification step prior tabletting. Wet granulation was identified as the most suitable technology for this compound.

[1] = Solubility at different pH

With `CNC(=O)c1ccc(-c2cnc3ncc(Cc4ccc5ncccc5c4)n3n2)cc1F` [2-fluoro-N-methyl-4-[7-(quinolin-6-ylmethyl)imidazo[1,2-b][1,2,4]triazin-2-yl]benzamide dihydrochloride] the “pH at which gelling behavior is mostly prominent” value (Gelling behavior) was “above 3.5”, the bulk density (Bulk density) was 0.085 g/mL and the solubility ([1]; pH 1, simulated gastric fluid) was 7200 µg/mL. The solubility ([1]; pH 6.8, aqueous buffer) was 79.3 µg/mL.

Source: patent US10085993B2, “Tablet formulation of 2-fluoro-N-methyl-4-[ 7-( quinolin-6-ylmethyl) imidazo [1,2-B] [1,2,4] triazin-2-yl] benzamide” (Novartis AG, priority 2014, dated 2018)
